Experimental data from ChEMBL document CHEMBL3526130, “An evaluation of using rat-derived single-dose neuropharmacokinetic parameters to project accurately large animal unbound brain drug concentrations” (Drug Metab Dispos, 2012).

Key:
Format in all cases: ADME, organism-based
[1] = AUC(0 to 7 hrs) in Sprague-Dawley rat plasma at 3 mg/kg, sc by LC-MS/MS analysis; set-up: time < 7 hr, dose 3 mg/kg, route subcutaneous
[2] = AUC(0 to infinity) in Sprague-Dawley rat plasma at 3 mg/kg, sc by LC-MS/MS analysis; set-up: time infinity, dose 3 mg/kg, route subcutaneous
[3] = AUC(0 to 7 hrs) in Sprague-Dawley rat cerebrospinal fluid at 3 mg/kg, sc by LC-MS/MS analysis; set-up: time < 7 hr, dose 3 mg/kg, route subcutaneous
[4] = AUC(0 to infinity) in Sprague-Dawley rat cerebrospinal fluid at 3 mg/kg, sc by LC-MS/MS analysis; set-up: dose 3 mg/kg, route subcutaneous, time infinity
[5] = Ratio of drug level in brain to plasma in Sprague-Dawley rat at 3 mg/kg, sc by LC-MS/MS analysis; set-up: dose 3 mg/kg, route subcutaneous; conditions: read-out: BPR
Nucleic Acid = test: Ratio of drug level in cerebrospinal fluid to unbound plasma concentration in Sprague-Dawley rat at 3 mg/kg, sc by LC-MS/MS analysis; set-up: dose 3 mg/kg, route subcutaneous; conditions: in vivo
[6] = Ratio of unbound brain concentration to drug level in cerebrospinal fluid in Sprague-Dawley rat at 3 mg/kg, sc by LC-MS/MS analysis; set-up: dose 3 mg/kg, route subcutaneous; conditions: in vivo
[7] = Ratio of unbound drug level in brain to plasma in Sprague-Dawley rat at 3 mg/kg, sc by LC-MS/MS analysis; set-up: dose 3 mg/kg, route subcutaneous
[8] = AUC(0 to 7 hrs) in Sprague-Dawley rat brain at 3 mg/kg, sc by LC-MS/MS analysis; set-up: time < 7 hr, dose 3 mg/kg, route subcutaneous
[9] = AUC(0 to infinity) in Sprague-Dawley rat brain at 3 mg/kg, sc by LC-MS/MS analysis; set-up: dose 3 mg/kg, route subcutaneous, time infinity
[10] = AUC(0 to 7 hrs) in Sprague-Dawley rat plasma at 0.2 mg/kg, sc by LC-MS/MS analysis; set-up: time < 7 hr, dose 0.2 mg/kg, route subcutaneous
[11] = AUC(0 to infinity) in Sprague-Dawley rat plasma at 0.2 mg/kg, sc by LC-MS/MS analysis; set-up: dose 0.2 mg/kg, route subcutaneous, time infinity
[12] = AUC(0 to 7 hrs) in Sprague-Dawley rat cerebrospinal fluid at 0.2 mg/kg, sc by LC-MS/MS analysis; set-up: time < 7 hr, dose 0.2 mg/kg, route subcutaneous
[13] = AUC(0 to infinity) in Sprague-Dawley rat cerebrospinal fluid at 0.2 mg/kg, sc by LC-MS/MS analysis; set-up: time infinity, dose 0.2 mg/kg, route subcutaneous
[14] = AUC(0 to 7 hrs) in Sprague-Dawley rat brain at 0.2 mg/kg, sc by LC-MS/MS analysis; set-up: time < 7 hr, dose 0.2 mg/kg, route subcutaneous
[15] = AUC(0 to infinity) in Sprague-Dawley rat brain at 0.2 mg/kg, sc by LC-MS/MS analysis; set-up: time infinity, dose 0.2 mg/kg, route subcutaneous

Structure (SMILES)	AUC(0-t) at 7 h [1] [ng·h/mL]	AUC(0-inf) [2] [ng·h/mL]	AUC(0-t) at 7 h [3] [ng·h/mL]	AUC(0-inf) [4] [ng·h/mL]	Kp [5]	Ratio (Nucleic Acid)	Ratio [6]	Kp uu [7]	AUC(0-t) at 7 h [8] [ng·h/mL]	AUC(0-inf) [9] [ng·h/mL]	AUC(0-t) at 7 h [10] [ng·h/mL]	AUC(0-inf) [11] [ng·h/mL]	AUC(0-t) at 7 h [12] [ng·h/mL]	AUC(0-inf) [13] [ng·h/mL]	AUC(0-t) at 7 h [14] [ng·h/mL]	AUC(0-inf) [15] [ng·h/mL]
Nc1nc(O)c2ncn(COC(CO)CO)c2n1 [GANCICLOVIR]	1700	1720	78.4	82.5	0.1	0.05	1.85	0.09	170	182	–	–	–	–	–	–
CCN(CC)CCNC(=O)c1cc(Cl)c(N)cc1OC [METOCLOPRAMIDE]	365	367	418	420	1.72	1.8	0.5	0.89	629	635	–	–	–	–	–	–
CCCC(C)C1(CC)C(=O)NC(=S)NC1=O (stereo unspecified) [THIOPENTAL]	–	–	–	–	–	–	–	–	–	–	216	244	16.4	16.6	209	215
